Source: US9833497B2, “Human originated EGF domain proteins and use of the same” (CHENGDU SOURCEBIO LIMITED-LIABILITY COMPANY, priority 2013, dated 2017)

Assays:
Type in all cases: cell-based
E. coli DH5α = assay: Antibacterial activity: MIC and growth curve against E. coli DH5α in 96-well plate; conditions: minimal inhibitory concentration against E. coli DH5α; 96-well plate, 5×10^5 CFU/mL, 37° C., judged after 8 h
Outline: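 Log-phase bacteria (OD600 ~0.5) resuspended in LB at 5×10^5 CFU/mL, exposed to recombinant protein at 50, 25, 12.5 μg/mL final in triplicate, 37 °C shaking at 175 rpm. OD600 read every 30 min; MIC is lowest concentration showing no growth.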

E. coli BL21 = assay: MIC against Gram-negative bacteria: E. coli BL21; conditions: for MIC against E. coli BL21 / MIC (μg/mL) E. coli BL21: 5×10^5 CFU/mL
Outline: (§1)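 LB broth cultures at McFarland 0.5, spun down, resuspended, diluted to 5×10^5 CFU/mL final. Two-fold serial dilutions of purified human EGF domain proteins, triplicate. 37° C, 175 rpm shaking. Endpoint: no visible growth.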

Pseudomonas aeruginosa = assay: MIC against Gram-negative bacteria: Pseudomonas aeruginosa; conditions: for MIC against P. aeruginosa / MIC (μg/mL) P. aeruginosa: 5×10^5 CFU/mL
Outline: as §1

Klebsiella pneumonia = assay: MIC against Gram-negative bacteria: Klebsiella pneumonia; conditions: for MIC against K. pneumonia / MIC (μg/mL) K. pneumonia: 5×10^5 CFU/mL
Outline: as §1

Enterobacter cloacae = assay: MIC against Gram-negative bacteria: Enterobacter cloacae; conditions: for MIC against E. cloacae / MIC (μg/mL) E. cloacae: 5×10^5 CFU/mL
Outline: as §1

Aeromonas hydrophila = assay: MIC against Gram-negative bacteria: Aeromonas hydrophila; conditions: for MIC against A. hydrophila / MIC (μg/mL) A. hydrophila: 5×10^5 CFU/mL
Outline: as §1

Citrobacter diversus = assay: MIC against Gram-negative bacteria: Citrobacter diversus; conditions: for MIC against C. diversus / MIC (μg/mL) C. diversus: 5×10^5 CFU/mL
Outline: as §1

Moraxella catarrhalis = assay: MIC against Gram-negative bacteria: Moraxella catarrhalis; conditions: for MIC against M. catarrhalis / MIC (μg/mL) M. catarrhalis: 5×10^5 CFU/mL
Outline: as §1

Proteus mirabilis = assay: MIC against Gram-negative bacteria: Proteus mirabilis; conditions: for MIC against P. mirabilis / MIC (μg/mL) P. mirabilis: 5×10^5 CFU/mL
Outline: as §1

Proteus vulgaris = assay: MIC against Gram-negative bacteria: Proteus vulgaris; conditions: for MIC against P. vulgaris / MIC (μg/mL) P. vulgaris: 5×10^5 CFU/mL
Outline: as §1

Serratia marcescens = assay: MIC against Gram-negative bacteria: Serratia marcescens; conditions: for MIC against S. marcescens / MIC (μg/mL) S. marcescens: 5×10^5 CFU/mL
Outline: as §1

[1] = E. coli BL21, 10 h cultivation at 37° C.
[2] = Pseudomonas aeruginosa, 10 h cultivation at 37° C.
[3] = Klebsiella pneumonia, 10 h cultivation at 37° C.
[4] = Enterobacter cloacae, 10 h cultivation at 37° C.
[5] = Aeromonas hydrophila, 10 h cultivation at 37° C.
[6] = Citrobacter diversus, 10 h cultivation at 37° C.
[7] = Moraxella catarrhalis, 10 h cultivation at 37° C.
[8] = Proteus mirabilis, 10 h cultivation at 37° C.
[9] = Proteus vulgaris, 10 h cultivation at 37° C.
[10] = Serratia marcescens, 10 h cultivation at 37° C.
[11] = P. aeruginosa, 10 h cultivation at 37° C.
[12] = K. pneumonia, 10 h cultivation at 37° C.
[13] = E. cloacae, 10 h cultivation at 37° C.
[14] = A. hydrophila, 10 h cultivation at 37° C.
[15] = C. diversus, 10 h cultivation at 37° C.
[16] = M. catarrhalis, 10 h cultivation at 37° C.
[17] = P. mirabilis, 10 h cultivation at 37° C.
[18] = P. vulgaris, 10 h cultivation at 37° C.
[19] = S. marcescens, 10 h cultivation at 37° C.

Substance: PRT1366 (ERLACPGACSGHGRCVDGRCLCHEPYVGADCG; listed as Homo sapiens)
- MIC (E. coli DH5α): 12.5 µg/mL
- MIC against E. coli BL21 (E. coli BL21; [1]): 12.5 µg/mL
- MIC against P. aeruginosa (Pseudomonas aeruginosa; [2]): 12.5 µg/mL
- MIC against K. pneumonia (Klebsiella pneumonia; [3]): 25 µg/mL
- MIC against E. cloacae (Enterobacter cloacae; [4]): 12.5 µg/mL
- MIC against A. hydrophila (Aeromonas hydrophila; [5]): 12.5 µg/mL
- MIC against C. diversus (Citrobacter diversus; [6]): 12.5 µg/mL
- MIC against M. catarrhalis (Moraxella catarrhalis; [7]): 12.5 µg/mL
- MIC against P. mirabilis (Proteus mirabilis; [8]): 12.5 µg/mL
- MIC against P. vulgaris (Proteus vulgaris; [9]): 12.5 µg/mL
- MIC against S. marcescens (Serratia marcescens; [10]): 12.5 µg/mL

Substance: PRT209 (DVDECAQALHDCRPSQDCHNLPGSYQCTCPDGYR; listed as Homo sapiens)
- MIC (E. coli DH5α): 12.5 µg/mL
- MIC (μg/mL) E. coli BL21 (E. coli BL21; [1]): 12.5 µg/mL
- MIC (μg/mL) P. aeruginosa (Pseudomonas aeruginosa; [11]): 12.5 µg/mL
- MIC (μg/mL) K. pneumonia (Klebsiella pneumonia; [12]): 25 µg/mL
- MIC (μg/mL) E. cloacae (Enterobacter cloacae; [13]): 12.5 µg/mL
- MIC (μg/mL) A. hydrophila (Aeromonas hydrophila; [14]): 12.5 µg/mL
- MIC (μg/mL) C. diversus (Citrobacter diversus; [15]): 12.5 µg/mL
- MIC (μg/mL) M. catarrhalis (Moraxella catarrhalis; [16]): 12.5 µg/mL
- MIC (μg/mL) P. mirabilis (Proteus mirabilis; [17]): 12.5 µg/mL
- MIC (μg/mL) P. vulgaris (Proteus vulgaris; [18]): 50 µg/mL
- MIC (μg/mL) S. marcescens (Serratia marcescens; [19]): 12.5 µg/mL

Substance: PRT1320 (PSNPCSHPDRGGCSENAECVPGSLGTHHCTCHKGWSGDGRVCV; listed as Homo sapiens)
- MIC (E. coli DH5α): 25 µg/mL
- MIC against E. coli BL21 (E. coli BL21; E. coli BL21, 96-well plate, 37° C., 10 h): 12.5 µg/mL
- MIC against P. aeruginosa (Pseudomonas aeruginosa; Pseudomonas aeruginosa, 96-well plate, 37° C., 10 h): 25 µg/mL
- MIC against K. pneumonia (Klebsiella pneumonia; Klebsiella pneumonia, 96-well plate, 37° C., 10 h): 12.5 µg/mL
- MIC against E. cloacae (Enterobacter cloacae; Enterobacter cloacae, 96-well plate, 37° C., 10 h): 25 µg/mL
- MIC against A. hydrophila (Aeromonas hydrophila; Aeromonas hydrophila, 96-well plate, 37° C., 10 h): 12.5 µg/mL
- MIC against C. diversus (Citrobacter diversus; Citrobacter diversus, 96-well plate, 37° C., 10 h): 12.5 µg/mL
- MIC against M. catarrhalis (Moraxella catarrhalis; Moraxella catarrhalis, 96-well plate, 37° C., 10 h): 12.5 µg/mL
- MIC against P. mirabilis (Proteus mirabilis; Proteus mirabilis, 96-well plate, 37° C., 10 h): 12.5 µg/mL
- MIC against P. vulgaris (Proteus vulgaris; Proteus vulgaris, 96-well plate, 37° C., 10 h): 50 µg/mL
- MIC against S. marcescens (Serratia marcescens; Serratia marcescens, 96-well plate, 37° C., 10 h): 12.5 µg/mL

Substance: PRT569 (CDCDLGGALNNSCFAESGQCSCRPHMIGRQC; listed as Homo sapiens)
- MIC (E. coli DH5α): 25 µg/mL
- MIC against E. coli BL21 (E. coli BL21; 96-well plate, 37° C., 10 h): 12.5 µg/mL
- MIC against P. aeruginosa (Pseudomonas aeruginosa; 96-well plate, 37° C., 10 h): 25 µg/mL
- MIC against K. pneumonia (Klebsiella pneumonia; 96-well plate, 37° C., 10 h): 12.5 µg/mL
- MIC against E. cloacae (Enterobacter cloacae; 96-well plate, 37° C., 10 h): 12.5 µg/mL
- MIC against A. hydrophila (Aeromonas hydrophila; 96-well plate, 37° C., 10 h): 25 µg/mL
- MIC against C. diversus (Citrobacter diversus; 96-well plate, 37° C., 10 h): 100 µg/mL
- MIC against M. catarrhalis (Moraxella catarrhalis; 96-well plate, 37° C., 10 h): 25 µg/mL
- MIC against P. mirabilis (Proteus mirabilis; 96-well plate, 37° C., 10 h): 12.5 µg/mL
- MIC against P. vulgaris (Proteus vulgaris; 96-well plate, 37° C., 10 h): 25 µg/mL
- MIC against S. marcescens (Serratia marcescens; 96-well plate, 37° C., 10 h): 12.5 µg/mL

Substance: PRT1450 (VPSNCDCLNGGTCVSNKYFSNIHWCNCPKKFGGQHCE; listed as Homo sapiens)
- MIC (E. coli DH5α): 12.5 µg/mL
- MIC against E. coli BL21 (E. coli BL21; [1]): 25 µg/mL
- MIC against P. aeruginosa (Pseudomonas aeruginosa; [2]): 50 µg/mL
- MIC against K. pneumonia (Klebsiella pneumonia; [3]): 12.5 µg/mL
- MIC against E. cloacae (Enterobacter cloacae; [4]): 25 µg/mL
- MIC against A. hydrophila (Aeromonas hydrophila; [5]): 50 µg/mL
- MIC against C. diversus (Citrobacter diversus; [6]): 25 µg/mL
- MIC against M. catarrhalis (Moraxella catarrhalis; [7]): 12.5 µg/mL
- MIC against P. mirabilis (Proteus mirabilis; [8]): 25 µg/mL
- MIC against P. vulgaris (Proteus vulgaris; [9]): 12.5 µg/mL
- MIC against S. marcescens (Serratia marcescens; [10]): 25 µg/mL

Substance: PRT951 (WTDACLSHPCANGSTCTTVANQFSCKCLTGFTGQKCE; listed as Homo sapiens)
- MIC (E. coli DH5α): 25 µg/mL
- MIC (E. coli BL21; [1]): 25 µg/mL
- MIC (Pseudomonas aeruginosa; [11]): 25 µg/mL
- MIC (Klebsiella pneumonia; [12]): 25 µg/mL
- MIC (Enterobacter cloacae; [13]): 12.5 µg/mL
- MIC (Aeromonas hydrophila; [14]): 12.5 µg/mL
- MIC (Citrobacter diversus; [15]): 25 µg/mL
- MIC (Moraxella catarrhalis; [16]): 12.5 µg/mL
- MIC (Proteus mirabilis; [17]): 25 µg/mL
- MIC (Proteus vulgaris; [18]): 50 µg/mL
- MIC (Serratia marcescens; [19]): 100 µg/mL

Substance: PRT881 (AEGPCGERPCENGGICFLLDGHPTCDCSTTGYGGKLCS; listed as Homo sapiens)
- MIC (E. coli DH5α): 12.5 µg/mL
- MIC (μg/mL) E. coli BL21 (E. coli BL21; [1]): 12.5 µg/mL
- MIC (μg/mL) P. aeruginosa (Pseudomonas aeruginosa; [11]): 12.5 µg/mL
- MIC (μg/mL) K. pneumonia (Klebsiella pneumonia; [12]): 25 µg/mL
- MIC (μg/mL) E. cloacae (Enterobacter cloacae; [13]): 12.5 µg/mL
- MIC (μg/mL) A. hydrophila (Aeromonas hydrophila; [14]): 25 µg/mL
- MIC (μg/mL) C. diversus (Citrobacter diversus; [15]): 12.5 µg/mL
- MIC (μg/mL) M. catarrhalis (Moraxella catarrhalis; [16]): 25 µg/mL
- MIC (μg/mL) P. mirabilis (Proteus mirabilis; [17]): 12.5 µg/mL
- MIC (μg/mL) P. vulgaris (Proteus vulgaris; [18]): 25 µg/mL
- MIC (μg/mL) S. marcescens (Serratia marcescens; [19]): 12.5 µg/mL
